Measurements taken from paper PMC3538727, “Design, Synthesis and Biological Evaluation of Novel Piperazine Derivatives as CCR5 Antagonists” (PLoS ONE, 2013).
“Also recorded” adds a separate entry of the source. Where two headings read alike, the source gives them in different places.

Columns and labels:
CCR5 = target: T1, CCR5 (Homo sapiens, UniProt P51681); assay: Cell-cell fusion assay (CCF assay, CCR5-mediated fusion); format: cell-based; conditions: for IC50 / inhibition at 10 µM / inhibition rate (10 µM), CCR5 fusion activity: mean of at least two experiments, DMSO as negative control; for fold loss of CCR5 fusion potency in comparison to 9e: relative to 9e; for inhibition at 10 µM: CCR5, read-out: inhibition rate (10 µM), CCR5 fusion activity
T1 construct: expressed in transfected cells
Description: A total of 21 novel piperazine derivatives 9a–h, 13a–d, 17, and 23a–h were screened for their inhibitory activity against cell-cell fusion between target cells expressing CD4/CCR5 and effector cells expressing the envelope protein of HIV-1, gp-120 (fusion assay).
Effector cell line: This cell line express HIV envelope protein gp160 and chimera protein Rn-Dn. Rn-Dn is consist of the N terminal of renilla luciferase and the N terminal of DnaE intein from Anacystis nidulans R2 PCC7942.
Target cell line: This cell line express chemokine receptor 5(CCR5), CD4 protein and chimera protein Dc-Rc. Dc-Rc is consist of the C teminal of renilla luceferase and the C teminal of NnaE intein from Anacystis nidulans R2 PCC7942.
The cell-cell fusion assay was performed as described previously.The effector cells were plated in 24 well white culture plates at 7.5×10^4 cell per well in DMEM supplemented with 10% FBS, 800 µg/mL G418. The target cells in the growth medium were then added to the plates at 7.5×10^4 cells/50 µL/well and incubated for 5 hours. At the end of coculture, 70 µL of renilla luceferase assay lysis was added into each well, and the cultures were gently shaken for 15 min. At the same time, add 20 µl of Renilla Luciferase Assay Reagent to the luminometer tube. Add 20 µl of cell lysate to the tube. Mix quickly by flicking the tube for 1 second. Place the tube in FB12 luminometer and initiate measurement. Luminescence was integrated over 1 second with a 2-second delay. When small molecule compounds needed to be added to the CCF assay system, the compounds were diluted manually in DMSO. Then, 10 µL of the diluted compounds was added to the effector cells just before the addition of target cells, thus making the final concentration of DMSO in the coculture 0.5%.

[1] = tested on: recombinant HIV-1 virus pseudotyped with the envelope proteins of the CCR5-tropic virus; assay: microbe, parasite or virus in culture; format: cell-based; conditions: for inhibition at 10 µM: Human immunodeficiency virus 1, SUP-T1, read-out: inhibition rate (10 µM), antiviral activity
Method: Fluorophenyl analogs 9e–g, phenyl, chlorophenyl, and trifluorophenyl analog 23a–c, and cyclohexyl analog 23 h were evaluated for their anti-HIV activity using a recombinant HIV-1 virus pseudotyped with the envelope proteins of the CCR5-tropic virus (HIV-1 single cycle antiviral assay). For overall estimation of the therapeutic potential of these novel CCR5 antagonists, maraviroc was used as a positive control.
HIV-1 proviral indicator construct pNL-Luc-E- contains a full-length HIV-1 genome, in which env was replaced by firefly Luciferase coding sequence. pENV-Ad8 expresses R5-tropic envelope (AD8).
Single-cycle HIV-1 replication assays were performed as described previously. In brief, 4×10^5 293T cells were co-transfected with 0.4 µg of pNL-Luc-E- and 0.4 µg of pENV-R5. After 48h, the supernatant containing pseudovirion was harvested by filtration through a 0.45 µm filter and the amount of viral capsid protein was measured by p24 antigen capture ELISA (Biomerieux). The resultant supernatant (10 µL) was used to infect SupT1 cells (1×10^5) in 96-well plates in the presence of testing compound at the concentration indicated. The SupT1 cells were lysed 48h post-infection and firefly luciferase activities were determined using a firefly Luciferase Assay System (Promega). Values were normalized to the control group treated with DMSO, and represented relative infectivity of each sample testing.

[2] = mean of two experiments, DMSO as negative control

T1 sequence (P51681 whole entry, the tested form may be a part): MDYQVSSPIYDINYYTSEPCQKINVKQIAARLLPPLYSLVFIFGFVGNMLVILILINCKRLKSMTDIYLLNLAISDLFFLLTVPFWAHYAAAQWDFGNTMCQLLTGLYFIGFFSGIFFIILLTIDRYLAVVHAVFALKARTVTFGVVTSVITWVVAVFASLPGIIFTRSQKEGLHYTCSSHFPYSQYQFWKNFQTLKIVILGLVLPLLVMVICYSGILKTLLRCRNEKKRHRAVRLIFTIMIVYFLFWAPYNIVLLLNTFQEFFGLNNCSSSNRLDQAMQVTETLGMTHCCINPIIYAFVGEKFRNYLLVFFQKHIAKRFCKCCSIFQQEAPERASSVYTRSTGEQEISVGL

Molecule: N#Cc1ccc(N2CCN(CCC(NC(=O)c3ccc(C(F)(F)F)cc3)c3ccccc3)CC2)cc1 (centres unmarked) [Compound 23c]
- IC50 (CCR5): 10 µM
- fold loss of CCR5 fusion potency in comparison to 9e (CCR5): 15 fold
- inhibition at 10 µM [1]: 24.6%
- melting point: 158 to 160 °C

Molecule: NC(=O)c1ccc(N2CCN(CCC(NC(=O)c3ccc(F)cc3)c3ccccc3)CC2)cc1 (centres unmarked) [Compound 9h]
- inhibition at 10 µM (CCR5): 20%

Molecule: N#Cc1ccc(N2CCN(CCC(NC(=O)c3ccc(F)cc3)c3ccc(Cl)c(Cl)c3)CC2)cc1 (centres unmarked) [Compound 9g]
- IC50 (CCR5): 10 µM
- fold loss of CCR5 fusion potency in comparison to 9e (CCR5): more than 15 fold
- inhibition at 10 µM [1]: 2.9%
- melting point: 85 to 88 °C

Molecule: N#Cc1ccc(CN2CCN(CCC(NC(=O)c3ccc(F)cc3)c3ccccc3)CC2)cc1 (centres unmarked) [Compound 13c]
- inhibition rate (10 µM), CCR5 fusion activity (CCR5): inactive
- melting point: 83 to 87 °C

Molecule: N#Cc1ccc(N2CCN(CCC(NC(=O)c3ccc(F)cc3)c3ccc(Cl)cc3)CC2)cc1 (centres unmarked) [Compound 9f]
- IC50 (CCR5): 3.7 µM
- fold loss of CCR5 fusion potency in comparison to 9e (CCR5): 5 fold
- inhibition rate (10 µM), antiviral activity [1, 2]: inactive
- melting point: 121 to 123 °C

Molecule: Cc1ccc(N2CCN(CCC(NC(=O)c3ccccc3)c3ccccc3)CC2)cc1 (centres unmarked) [Compound 9a]
- inhibition at 10 µM (CCR5): 47%
- melting point: 165 to 167 °C

Molecule: N#CCc1ccc(N2CCN(CCC(NC(=O)c3ccc(F)cc3)c3ccccc3)CC2)cc1 (centres unmarked) [Compound 13a]
- inhibition rate (10 µM), CCR5 fusion activity (CCR5): inactive
- melting point: 115 to 119 °C

Molecule: maraviroc [reference compound]
- inhibition rate (10 µM), antiviral activity [1, 2]: 96.8%
- IC50 ([1]; read-out: IC50 (µM), antiviral activity, mean of two experiments, DMSO as negative control): 0.0011 µM

Molecule: Cc1ccc(N2CCN(CCC(NC(=O)c3ccc(F)cc3)c3ccccc3)CC2)cc1 (centres unmarked) [Compound 9b]
- inhibition at 10 µM (CCR5): 35%
- melting point: 171 to 173 °C

Molecule: N#Cc1ccc(N2CCN(CCC(NC(=O)C3CCN(C(=O)c4ccccc4)CC3)c3ccccc3)CC2)cc1 (centres unmarked) [Compound 23f]
- inhibition at 10 µM (CCR5): 15%
- melting point: 121 to 124 °C

Molecule: N#Cc1ccc(N2CCN(CCC(NC(=O)C3CCCCC3)c3ccccc3)CC2)cc1 (centres unmarked) [Compound 23h]
- IC50 (CCR5): 6.29 µM
- IC50 ([1]; Human immunodeficiency virus 1, SUP-T1, read-out: IC50 (µM), antiviral activity): 0.44 µM
- inhibition at 10 µM [1]: 66.5%

Molecule: CC(=O)N1CCC(C(=O)NC(CCN2CCN(c3ccc(C#N)cc3)CC2)c2ccccc2)CC1 (centres unmarked) [Compound 23e]
- inhibition rate (10 µM), CCR5 fusion activity (CCR5): complete loss in fusion activity; also recorded: inactive
- melting point: 100 to 105 °C

Molecule: O=C(NC(CCN1CCN(c2ccc(F)cc2)CC1)c1ccccc1)c1ccc(F)cc1 (centres unmarked) [Compound 9c]
- inhibition at 10 µM (CCR5): 41%
- melting point: 157 to 159 °C

Molecule: CC(C)c1ccc(C(=O)NC(CCN2CCN(c3ccc(C#N)cc3)CC2)c2ccccc2)cc1 (centres unmarked) [Compound 23d]
- inhibition at 10 µM (CCR5): 20%
- melting point: 155 to 158 °C

Molecule: N#Cc1ccc(N2CCN(CCC(NC(=O)c3ccccc3)c3ccccc3)CC2)cc1 (centres unmarked) [Compound 23a]
- IC50 (CCR5): 2.44 µM
- fold loss of CCR5 fusion potency in comparison to 9e (CCR5): 4 fold
- inhibition at 10 µM [1]: 28.9%
- melting point: 152 to 155 °C

Molecule: N#Cc1ccc(N2CCN(CCC(NC(=O)c3ccc(F)cc3)c3ccccc3)CC2)cc1 (centres unmarked) [Compound 9e]
- IC50 (CCR5): 0.64 µM
- inhibition rate (10 µM), antiviral activity [1, 2]: weak anti-HIV activity
- inhibition at 10 µM [1]: 23.8%
- melting point: 160 to 162 °C

Molecule: O=C(NC(CCN1CCN(c2ccc(F)cc2)CC1)c1ccccc1)c1ccccc1 (centres unmarked) [Compound 9d]
- inhibition at 10 µM (CCR5): 26%
- melting point: 152 to 154 °C

Molecule: N#Cc1ccc(N2CCN(CCC(NC(=O)c3ccc(Cl)cc3)c3ccccc3)CC2)cc1 (centres unmarked) [Compound 23b]
- IC50 (CCR5): 2.87 µM
- fold loss of CCR5 fusion potency in comparison to 9e (CCR5): 5 fold
- inhibition at 10 µM [1]: 29.9%
- melting point: 143 to 145 °C

Molecule: N#Cc1ccc(C(=O)N2CCN(CCC(NC(=O)c3ccc(F)cc3)c3ccccc3)CC2)cc1 (centres unmarked) [Compound 13b]
- inhibition at 10 µM (CCR5): 22%
- melting point: 80 to 84 °C

Molecule: N#Cc1ccc(N2CCN(C(=O)CC(NC(=O)c3ccc(F)cc3)c3ccccc3)CC2)cc1 (centres unmarked) [Compound 13d, N-(3-(4-(4-cyanophenyl)piperazin-1-yl)-3-oxo-1-phenylpropyl)-4-fluoro-benzamide]
- inhibition at 10 µM (CCR5): 25%
- melting point: 98 to 102 °C

Molecule: N#Cc1ccc(N2CCN(CCCN(C(=O)c3ccc(F)cc3)c3ccccc3)CC2)cc1 [Compound 17, N-(3-(4-(4-cyanophenyl)piperazin-1-yl)propyl)-4-fluoro-N-phenylbenzamide]
- inhibition rate (10 µM), CCR5 fusion activity (CCR5): inactive
- melting point: 82 to 84 °C

Molecule: N#Cc1ccc(N2CCN(CCC(NC(=O)c3ccco3)c3ccccc3)CC2)cc1 (centres unmarked) [Compound 23g]
- inhibition rate (10 µM), CCR5 fusion activity (CCR5): inactive
- melting point: 132 to 136 °C
